Measurements from the NIST ThermoML archive (doi:10.1021/je050034s).
Numbers after ± are expanded uncertainties.

How the values were obtained:
[1] = Molar enthalpy of transition or fusion; conditions: Crystal
[2] = molar heat capacity at saturation pressure; conditions: Crystal, Vacuum adiabatic calorimetry

In the case of c1ccc(Cc2ccccc2)cc1 [diphenylmethane], the mass density (308.14 K, Liquid, Vibrating tube method) is reported as 996.7 ± 1 kg/m3, the mass density (323.14 K, Liquid, Vibrating tube method) is reported as 985.3 ± 1 kg/m3 and the “vapor or sublimation pressure” value (329.99 K, Liquid, Inclined piston gauge) is reported as 0.0261 ± 0.001 kPa. For the same compound, the “vapor or sublimation pressure” value (339.99 K, Liquid, Inclined piston gauge) was 0.0523 ± 0.0011 kPa, the mass density (348.13 K, Liquid, Vibrating tube method) was 965.6 ± 1 kg/m3 and the “vapor or sublimation pressure” value (349.98 K, Liquid, Inclined piston gauge) was 0.0995 ± 0.0011 kPa. The “vapor or sublimation pressure” value (359.97 K, Liquid, Inclined piston gauge) was 0.1814 ± 0.0012 kPa, the “vapor or sublimation pressure” value (369.98 K, Liquid, Inclined piston gauge) was 0.3181 ± 0.0014 kPa and the mass density (373.12 K, Liquid, Vibrating tube method) was 945.8 ± 0.9 kg/m3. For the same compound, the “vapor or sublimation pressure” value (379.98 K, Liquid, Inclined piston gauge) was 0.5378 ± 0.0016 kPa, the “vapor or sublimation pressure” value (389.97 K, Liquid, Inclined piston gauge) was 0.8793 ± 0.0021 kPa and the mass density (398.12 K, Liquid, Vibrating tube method) was 926.1 ± 0.9 kg/m3. The “vapor or sublimation pressure” value (399.97 K, Liquid, Inclined piston gauge) was 1.395 ± 0.0027 kPa, the “vapor or sublimation pressure” value (408.21 K, Liquid, Twin ebulliometer) was 2 ± 0.01 kPa and the “vapor or sublimation pressure” value (409.97 K, Liquid, Inclined piston gauge) was 2.155 ± 0.0036 kPa. The “vapor or sublimation pressure” value (414.97 K, Liquid, Inclined piston gauge) was 2.651 ± 0.0043 kPa, the “vapor or sublimation pressure” value (415.11 K, Liquid, Twin ebulliometer) was 2.666 ± 0.01 kPa and the “vapor or sublimation pressure” value (419.97 K, Liquid, Inclined piston gauge) was 3.243 ± 0.0049 kPa. For the same compound, the mass density (423.12 K, Liquid, Vibrating tube method) was 905.7 ± 0.9 kg/m3, the “vapor or sublimation pressure” value (425.34 K, Liquid, Twin ebulliometer) was 4 ± 0.011 kPa and the “vapor or sublimation pressure” value (432.99 K, Liquid, Twin ebulliometer) was 5.333 ± 0.011 kPa. For the same compound, the “vapor or sublimation pressure” value (444.38 K, Liquid, Twin ebulliometer) was 7.999 ± 0.012 kPa, the mass density (448.11 K, Liquid, Vibrating tube method) was 885.4 ± 0.9 kg/m3 and the “vapor or sublimation pressure” value (452.93 K, Liquid, Twin ebulliometer) was 10.67 ± 0.013 kPa. For the same compound, the “vapor or sublimation pressure” value (459.84 K, Liquid, Twin ebulliometer) was 13.33 ± 0.014 kPa, the “vapor or sublimation pressure” value (467.03 K, Liquid, Twin ebulliometer) was 16.66 ± 0.015 kPa and the “vapor or sublimation pressure” value (473 K, Liquid, Twin ebulliometer) was 19.93 ± 0.016 kPa. The mass density (473.11 K, Liquid, Vibrating tube method) was 864.3 ± 0.9 kg/m3, the “vapor or sublimation pressure” value (480.86 K, Liquid, Twin ebulliometer) was 25.02 ± 0.018 kPa and the “vapor or sublimation pressure” value (488.78 K, Liquid, Twin ebulliometer) was 31.17 ± 0.021 kPa. The “vapor or sublimation pressure” value (496.76 K, Liquid, Twin ebulliometer) was 38.56 ± 0.024 kPa, the mass density (498.11 K, Liquid, Vibrating tube method) was 842.6 ± 0.9 kg/m3 and the “vapor or sublimation pressure” value (504.79 K, Liquid, Twin ebulliometer) was 47.37 ± 0.027 kPa. The “vapor or sublimation pressure” value (512.88 K, Liquid, Twin ebulliometer) was 57.81 ± 0.031 kPa, the “vapor or sublimation pressure” value (521.02 K, Liquid, Twin ebulliometer) was 70.11 ± 0.035 kPa and the mass density (523.11 K, Liquid, Vibrating tube method) was 819.2 ± 0.8 kg/m3. The “vapor or sublimation pressure” value (529.22 K, Liquid, Twin ebulliometer) was 84.53 ± 0.041 kPa, the “vapor or sublimation pressure” value (537.47 K, Liquid, Twin ebulliometer) was 101.31 ± 0.046 kPa and the “vapor or sublimation pressure” value (545.78 K, Liquid, Twin ebulliometer) was 120.78 ± 0.05 kPa. For the same compound, the “vapor or sublimation pressure” value (554.14 K, Liquid, Twin ebulliometer) was 143.23 ± 0.06 kPa, the “vapor or sublimation pressure” value (562.56 K, Liquid, Twin ebulliometer) was 169 ± 0.07 kPa and the “vapor or sublimation pressure” value (571.03 K, Liquid, Twin ebulliometer) was 198.46 ± 0.08 kPa. The “vapor or sublimation pressure” value (579.55 K, Liquid, Twin ebulliometer) was 231.99 ± 0.09 kPa, the “vapor or sublimation pressure” value (588.13 K, Liquid, Twin ebulliometer) was 269.98 ± 0.09 kPa and the mass density (743.8 K, Gas, DSC) was 104.3 ± 10 kg/m3. For the same compound, the mass density (754.8 K, Gas, DSC) was 148.4 ± 15 kg/m3, the mass density (760.6 K, Liquid, DSC) was 417.7 ± 42 kg/m3 and the mass density (767.1 K, Liquid, DSC) was 417.5 ± 42 kg/m3. The mass density (769.8 K, Liquid, DSC) was 397.2 ± 40 kg/m3, the mass density (770 K, Gas, DSC) was 191.2 ± 19 kg/m3 and the mass density (775.7 K, Gas, DSC) was 220.3 ± 22 kg/m3. It also gave a mass density (776.5 K, Liquid, DSC) of 333.5 ± 34 kg/m3, a mass density (777 K, Liquid, DSC) of 304.2 ± 31 kg/m3 and a Triple point temperature (Crystal) of 298.37 ± 0.025 K. For the same compound, the Critical temperature (Liquid, DTA) was 778 ± 2 K, the “Molar enthalpy of transition or fusion” value [1] was 4.543 ± 0.00478 kcal/mol and the molar heat capacity ([2]; 5 K) was 0.38 ± 0.02 J/K/mol. It also gave a molar heat capacity ([2]; 5.364 K) of 0.47 ± 0.02 J/K/mol, a molar heat capacity ([2]; 6.296 K) of 0.76 ± 0.02 J/K/mol and a molar heat capacity ([2]; 7.218 K) of 1.16 ± 0.02 J/K/mol. For the same compound, the molar heat capacity ([2]; 8.187 K) was 1.71 ± 0.02 J/K/mol, the molar heat capacity ([2]; 9.195 K) was 2.42 ± 0.03 J/K/mol and the molar heat capacity ([2]; 10 K) was 3.12 ± 0.04 J/K/mol. For the same compound, the molar heat capacity ([2]; 10.21 K) was 3.31 ± 0.04 J/K/mol, the molar heat capacity ([2]; 11.33 K) was 4.39 ± 0.05 J/K/mol and the molar heat capacity ([2]; 12.6 K) was 5.74 ± 0.06 J/K/mol. The molar heat capacity ([2]; 13.99 K) was 7.45 ± 0.07 J/K/mol, the molar heat capacity ([2]; 15.53 K) was 9.437 ± 0.07 J/K/mol and the molar heat capacity ([2]; 17.24 K) was 11.84 ± 0.091 J/K/mol. It also gave a molar heat capacity ([2]; 19.13 K) of 14.59 ± 0.1 J/K/mol, a molar heat capacity ([2]; 20 K) of 15.87 ± 0.1 J/K/mol and a molar heat capacity ([2]; 21.21 K) of 17.66 ± 0.11 J/K/mol. It also gave a molar heat capacity ([2]; 23.51 K) of 21.15 ± 0.12 J/K/mol, a molar heat capacity ([2]; 26.07 K) of 24.97 ± 0.12 J/K/mol and a molar heat capacity ([2]; 28.93 K) of 29.09 ± 0.12 J/K/mol. For the same compound, the molar heat capacity ([2]; 30 K) was 30.59 ± 0.11 J/K/mol, the molar heat capacity ([2]; 32.11 K) was 33.47 ± 0.11 J/K/mol and the molar heat capacity ([2]; 35.66 K) was 37.99 ± 0.12 J/K/mol. The molar heat capacity ([2]; 39.62 K) was 42.58 ± 0.12 J/K/mol, the molar heat capacity ([2]; 40 K) was 43 ± 0.12 J/K/mol and the molar heat capacity ([2]; 44.02 K) was 47.26 ± 0.13 J/K/mol. The molar heat capacity ([2]; 48.94 K) was 51.94 ± 0.14 J/K/mol, the molar heat capacity ([2]; 50 K) was 52.92 ± 0.15 J/K/mol and the molar heat capacity ([2]; 50.87 K) was 53.74 ± 0.15 J/K/mol. For the same compound, the molar heat capacity ([2]; 52.95 K) was 55.44 ± 0.15 J/K/mol and the molar heat capacity ([2]; 54.43 K) was 56.74 ± 0.16 J/K/mol.
